Assays:
[1] = system: COLO-205/ Colon Cancer; test: NCI single-dose screen, COLO-205; type: cell-based, human; conditions: 10 μM, 48 h
Protocol: (§1) Considering the results of previous studies of fused thiazolidinones and their analogs, a series of thiopyrano[2,3-d]thiazoles with naphthoquinone fragments in the structure were studied for their anticancer activity. Thus, synthesized thiopyranothiazole derivatives 3.5 and 3.6 were selected by the National Cancer Institute (NCI), U.S., for their anticancer activity at 10 μM concentration toward a panel of sixty cancer cell lines representing nine different types (leukemia, melanoma, lung, colon, CNS, ovarian, renal, prostate, and breast cancers) (Figures S13–S14). Selection for screening based on new derivatives’ ability to add diversity to the NCI small molecules collection and anticancer assays were performed according to the NCI guidelines and protocols previously described. The compounds were added at the mentioned concentration, and the cell cultures were incubated for 48 h. The results for each compound were reported as the growth percent (GP%) of treated cells compared with untreated control cells.
(§2) Anticancer in vitro assay was performed on the human tumor cell lines panel derived from nine neoplastic diseases by the protocol of the Drug Evaluation Branch, National Cancer Institute, Bethesda, MD, USA [44, 45, 46]. […] GP% was spectrophotometrically evaluated vs. controls not treated with test agents.

[2] = system: M14/ADR-RES/ Melanoma; test: NCI single-dose screen, M14/ADR-RES; type: cell-based, human; conditions: 10 μM, 48 h
Protocol: (§3) Selection for screening based on new derivatives’ ability to add diversity to the NCI small molecules collection and anticancer assays were performed according to the NCI guidelines and protocols previously described. The compounds were added at the mentioned concentration, and the cell cultures were incubated for 48 h.
as §2, with “46]. Tested compounds were added to the culture at a single concentration (10^−5 M), and the cultures were incubated for 48 h.” for “46].”

[3] = system: SK-MEL-2/Melanoma; test: NCI single-dose screen, SK-MEL-2; type: cell-based, human; conditions: 10 μM, 48 h
Protocol: as §1, §2

[4] = system: SK-MEL-5/Melanoma; test: NCI single-dose screen, SK-MEL-5; type: cell-based, human; conditions: 10 μM, 48 h
Protocol: as §3
as §2, with “46]. Tested compounds were added to the culture at a single concentration (10^−5 M), and the cultures were incubated for 48 h.” for “46].”

[5] = system: A498/ Renal Cancer; test: NCI single-dose screen, A498; type: cell-based, human; conditions: 10 μM, 48 h
Protocol: as §1, §2

[6] = system: UO-31/Renal Cancer; test: NCI single-dose screen, UO-31; type: cell-based, human; conditions: 10 μM, 48 h
Protocol: as §1, §2

[7] = system: LOX IMVI/Melanoma; test: NCI single-dose screen, LOX IMVI; type: cell-based, human; conditions: 10 μM, 48 h
Protocol: as §1, §2

[8] = system: MALME-3M/Melanoma; test: NCI single-dose screen, MALME-3M; type: cell-based, human; conditions: 10 μM, 48 h
Protocol: as §1, §2

[9] = system: MCF7/Breast Cancer; test: NCI single-dose screen, MCF7; type: cell-based, human; conditions: 10 μM, 48 h
Protocol: as §1, §2

[10] = system: salmon sperm DNA; test: Spectroscopic DNA interaction assay (KMnO4 oxidation); type: binding; conditions: DNA + compound + KMnO4, time- and concentration-dependent, up to 3 h; binder if >0.05 or <−0.05
Text: The method investigates conformational changes in the DNA; for example, when DNA is exposed to an intercalating, alkylation, or other classes of DNA-binding agents. It is based on the oxidative reaction of potassium permanganate with pyrimidine bases. Compounds that interact with DNA distort its duplex structure, thus exposing pyrimidine bases for oxidation by KMnO4, which generates products that can be detected by spectrophotometry. Different classes of DNA-binding compounds can be studied in such a way. […] Net A405 ranged from 0.00 to 0.50 in the presence of the compound, and Net A405 ranged from 0.02 to 0.045 in the control case (Figure 9).
A spectroscopic DNA interaction study was performed as previously described. salmon sperm DNA (Sigma-Aldrich, USA) was diluted in Milli-Q water at 4 °C for 24 h at 1.65 mg/mL. Tested compounds were dissolved in acetone. After 1 h of incubation of DNA and compound, KMnO4 was added to a final concentration of 0.3 mM and the absorbance at 405 nm was measured (Absorbance Reader BioTek ELx800) (BioTek Instruments, Inc., Winooski, VT, USA) in different periods up to 3 h. Appropriate controls of DNA alone and compound alone were included, and these Abs values were subtracted from the test sample to provide the net change in absorbance (NetAbs). […]

Row | SMILES | Most Sensitive Cell Line Growth, % (COLO-205/ Colon Cancer) [1] | Most Sensitive Cell Line Growth, % (M14/ADR-RES/ Melanoma) [2] | Most Sensitive Cell Line Growth, % (SK-MEL-2/Melanoma) [3] | Most Sensitive Cell Line Growth, % (SK-MEL-5/Melanoma) [4] | Most Sensitive Cell Line Growth, % (A498/ Renal Cancer) [5] | Most Sensitive Cell Line Growth, % (UO-31/Renal Cancer) [6] | Most Sensitive Cell Line Growth, % (LOX IMVI/Melanoma) [7] | Most Sensitive Cell Line Growth, % (MALME-3M/Melanoma) [8] | Most Sensitive Cell Line Growth, % (MCF7/Breast Cancer) [9] | Net A405 (net change in absorbance) [10]
1 | COc1cccc2c1C(=O)c1c(O)c3c(c(O)c1C2=O)C[C@@](O)(C(=O)CO)C[C@@H]3O[C@H]1C[C@H](N)[C@H](O)[C@H](C)O1 [Doxorubicin, doxorubicin, reference compound] | −81.60% | −71.60% | −82.60% | −86.40% | −75.10% | – | – | – | – | –
2 | O=C1C2=C(C(=O)c3ccccc31)C(CCc1ccccc1)c1sc(=O)[nH]c1S2 (stereo not shown) [Compound 3.6, 11-Phenethyl-3,11-dihydro-2H-benzo[6,7]thiochromeno[2,3-d]thiazole-2,5,10-trione] | – | – | – | – | – | 51.76% | 57.17% | 45.25% | 58.83% | 0.00 to 0.50

Source: PMC9658586, “1,4-Naphthoquinone Motif in the Synthesis of New Thiopyrano[2,3-d]thiazoles as Potential Biologically Active Compounds” (Molecules, 2022)
